Data reported in US12595239B2, “Substituted isoxazoline derivatives” (BASF SE, priority 2021, dated 2026).

What was measured:
Type in all cases: in vivo
[1] = system: Anthonomus grandis; experiment: B.1 Boll weevil (Anthonomus grandis), 96-well microtiter plate diet test; conditions: 120 h, egg and larval mortality, 5 days, read-out: mortality in comparison with untreated controls
Experimental: For evaluating control of boll weevil, the test unit consisted of 96-well-microtiter plates containing an insect diet and 5-10 A. grandis eggs.
The compounds were formulated using a solution containing 75% v/v water and 25% v/v DMSO. Different concentrations of formulated compounds were sprayed onto the insect diet at 5 μl, using a custom-built micro atomizer, at two replications.
After application, microtiter plates were incubated at about 25±1° C. and about 75±5% relative humidity for 5 days. Egg and larval mortality were then visually assessed.

[2] = system: Myzus persicae; experiment: B.3 Green Peach Aphid (mixed life stages), systemic artificial diet test; conditions: 72 h, treated aphid diet, 3 days, read-out: mortality in comparison with untreated controls
Description: For evaluating control of Green Peach Aphid through systemic means the test unit consisted of 96-well-microtiter plates containing liquid artificial diet under an artificial membrane. The compounds were formulated using a solution containing 75% v/v water and 25% v/v DMSO. Different concentrations of formulated compounds were pipetted into the aphid diet, using a custom-built pipette, at two replications. After application, 5-8 adult aphids were placed on the artificial membrane inside the microtiter plate wells. The aphids were then allowed to suck on the treated aphid diet and incubated at about 23±1° C. and about 50±5% relative humidity for 3 days. Aphid mortality and fecundity was then visually assessed.

[3] = system: Heliothis virescens; experiment: B.4 Tobacco Budworm, microtiter plate diet test; conditions: 120 h, egg and larval mortality, 5 days, read-out: mortality in comparison with untreated controls
Experimental: For evaluating control of Tobacco Budworm, the test unit consisted of 96-well-microtiter plates containing an insect diet and 15-25 H. virescens eggs. The compounds were formulated using a solution containing 75% v/v water and 25% v/v DMSO. Different concentrations of formulated compounds were sprayed onto the insect diet at 10 μl, using a custom-built micro atomizer, at two replications. After application, microtiter plates were incubated at about 28±1° C. and about 80±5% relative humidity for 5 days. Egg and larval mortality was then visually assessed.

[4] = system: Aedes aegypti; experiment: whole plant or invertebrate; conditions: 48 h, larval mortality, 2 days, read-out: mortality in comparison with untreated controls
Experimental: For evaluating control of Yellow Fever Mosquito, the test unit consisted of 96-well-microtiter plates containing 200 μl of tap water per well and 5-15 freshly hatched A. aegypti larvae. The active compounds were formulated using a solution containing 75% (v/v) water and 25% (v/v) DMSO. Different concentrations of formulated compounds or mixtures were sprayed onto the insect diet at 2.5 μl, using a custom-built micro atomizer, at two replications.
After application, microtiter plates were incubated at 28±1° C., 80±5% RH for 2 days. Larval mortality was then visually assessed.

[5] = system: Plutella xylostella; experiment: B.6 Diamond Back Moth, cabbage leaf disc dip test; conditions: foliar, 3rd instar larvae, 72 hours after treatment, read-out: mortality in comparison with untreated controls
Experimental: The active compound was dissolved at the desired concentration in a mixture of 1:1 (vol:vol) distilled water:acetone. Surfactant (Kinetic) was added at a rate of 0.01% (vol/vol). The test solution was prepared at the day of use. Cabbage leaf discs (60 mm in diameter) were dipped in test solution and air-dried. Treated leaves were placed in petri dishes lined with moistened filter paper and inoculated with ten 3rd instar larvae. Mortality was recorded 72 hours after treatment. Feeding damages were also recorded using a scale of 0-100%.

[6] = system: Dichromothrips corbetti; experiment: B.7 Orchid Thrips, floral-immersion test; conditions: adult thrips, 72 hours after treatment, read-out: mortality in comparison with untreated controls
Experimental: Dichromothrips corbetti adults used for bioassay were obtained from a colony maintained continuously under laboratory conditions. For testing purposes, the test compound was diluted in a 1:1 mixture of acetone:water (vol:vol), plus Kinetic at a rate of 0.01% v/v.
Thrips potency of each compound was evaluated by using a floral-immersion technique. Each orchid petal was dipped into treatment solution and allowed to dry in Petri dishes. Treated petals were placed into individual re-sealable plastic along with about 20 adult thrips. All test arenas were held under dark condition and a temperature of about 28° C. for duration of the assay. The percent mortality was recorded 72 hours after treatment.

[7] = system: Nezara viridula; experiment: B.8 Green Soldier Stink Bug, soybean pod spray test; conditions: 120 h, late 3rd instar, after 5 days, read-out: mortality in comparison with untreated controls
Experimental: The active compound was dissolved at the desired concentration in a mixture of 1:1 (vol:vol) distilled water:aceteone. Surfactant (Kinetic) was added at a rate of 0.01% (vol/vol). The test solution was prepared at the day of use. Soybean pods were placed in 90×50 mm glass Petri dishes lined with moistened filter paper and inoculated with ten late 3rd instar N. viridula. Using a hand atomizer, an approximately 2 ml solution was sprayed into each Petri dish. Treated setup was kept at about 25-26° C. and relative humidity of about 65-70%. Percent mortality was recorded after 5 days.

[8] = system: Trialeurodes vaporarirorum; experiment: B.2 Greenhouse Whitefly, microtiter plate eggplant leaf disk test; conditions: foliar, 144 h, mortality of hatched crawlers, 6 days, read-out: mortality in comparison with untreated controls
Experimental: For evaluating control of Greenhouse Whitefly, the test unit consisted of 96-well-microtiter plates containing a leaf disk of eggplant leaf disk with Whitefly eggs. The compounds or mixtures were formulated using a solution containing 75% water and 25% DMSO. Different concentrations of formulated were sprayed onto the insect diet at 2.5 μl, using a custom-built micro atomizer, at two replications. After application, microtiter plates were incubated at 23±1° C., 65±5% RH for 6 days. Mortality of hatched crawlers was then visually assessed.

[9] = system: Spodoptera eridania; experiment: B.11 Southern Armyworm 2nd instar larvae, lima bean foliar spray test; conditions: 96 h, 4 days after treatment, read-out: mortality in comparison with untreated controls
Experimental: The active compounds were formulated by a Tecan liquid handler in 100% cyclohexanone as a 10′000 ppm solution supplied in tubes. The 10′000 ppm solution was serially diluted in 100% cyclohexanone to make interim solutions. These served as stock solutions for which final dilutions were made by the Tecan in 50% acetone:50% water (v/v) into 10 or 20 ml glass vials. A nonionic surfactant (Kinetic®) was included in the solution at a volume of 0.01% (v/v). The vials were then inserted into an automated electrostatic sprayer equipped with an atomizing nozzle for application to plants/insects. Lima bean plants (variety Sieva) were grown 2 plants to a pot and selected for treatment at the 1st true leaf stage. Test solutions were sprayed onto the foliage by an automated electrostatic plant sprayer equipped with an atomizing spray nozzle. The plants were dried in the sprayer fume hood and then removed from the sprayer. Each pot was placed into perforated plastic bags with a zip closure. Ten to 11 armyworm larvae were placed into the bag and the bags zipped closed. Test plants were maintained in a growth room at about 25° C. and about 20-40% relative humidity for 4 days, avoiding direct exposure to fluorescent light (14:10 light:dark photo-period) to prevent trapping of heat inside the bags. Mortality and reduced feeding were assessed 4 days after treatment, compared to untreated control plants.

[10] = system: Nephotettix virescens; experiment: B.9 Rice Green Leafhopper, rice seedling spray test; conditions: adults, after 72 hours, read-out: mortality in comparison with untreated controls
Experimental: Four to five-week old rice seedlings with cut upper leaf portion were cleaned and washed 24 hours before spraying. The active compounds were formulated in 1:1 acetone:water (vol:vol), and 0.01% vol/vol surfactant (Kinetic) was added. Potted rice seedlings were sprayed with 5-6 ml test solution, air dried, covered with Mylar cages and inoculated with 10 adults. Treated rice plants were kept at about 28-29° C. and relative humidity of about 50-60%. Percent mortality was recorded after 72 hours.

[11] = system: Tetranychus kanzawai; experiment: B.10 Red Spider Mite, cowpea bean spray test; conditions: 72 hours after treatment, read-out: mortality in comparison with untreated controls
Experimental: The active compound was dissolved at the desired concentration in a mixture of 1:1 (vol:vol) distilled water:acetone. Add surfactant (Kinetic) was added at a rate of 0.01% (vol/vol). The test solution was prepared at the day of use. Potted cowpea beans of 4-5 days of age were cleaned with tap water and sprayed with I-2 ml of the test solution using air driven DeVilbiss® hand atomizer at 20-30 psi (≈1,38 to 2,07 bar). The treated plants were allowed to air dry and afterwards inoculated with 30 or more mites by clipping a cassava leaf section from rearing population. Treated plants were placed inside a holding room at about 25-26° C. and about 65-70% relative humidity. Percent mortality was assessed 72 hours after treatment.

[12] = system: Bemisia argentifolii; experiment: B.12 Silverleaf Whitefly (adults), cotton plant spray test; conditions: 72 h, 3 days after treatment, read-out: mortality in comparison with untreated controls
Experimental: The active compounds were formulated by a Tecan liquid handler in 100% cyclohexanone as a 10,000-ppm solution supplied in tubes. The 10,000-ppm solution was serially diluted in 100% cyclohexanone to make interim solutions. These served as stock solutions for which final dilutions were made by the Tecan in 50% acetone:50% water (v/v) into 5 or 10 ml glass vials. A nonionic surfactant (Kinetic®) was included in the solution at a volume of 0.01% (v/v). The vials were then inserted into an automated electrostatic sprayer equipped with an atomizing nozzle for application to plants/insects. Cotton plants at the cotyledon stage (one plant per pot) were sprayed by an automated electrostatic plant sprayer equipped with an atomizing spray nozzle. The plants were dried in the sprayer fume hood and then removed from the sprayer. Each pot was placed into a plastic cup and about 10 to 12 whitefly adults (approximately 3-5 days old) were introduced. The insects were collected using an aspirator and a nontoxic Tygon® tubing connected to a barrier pipette tip. The tip, containing the collected insects, was then gently inserted into the soil containing the treated plant, allowing insects to crawl out of the tip to reach the foliage for feeding. Cups were covered with a reusable screened lid. Test plants were maintained in a growth room at about 25° C. and about 20-40% relative humidity for 3 days, avoiding direct exposure to fluorescent light (14:10 light:dark photoperiod) to prevent trapping of heat inside the cup. Mortality was assessed 3 days after treatment, compared to untreated control plants.

Nc1c(F)ccc(NC(=O)c2cc(NC3=NOC(c4cc(Cl)cc(Cl)c4)(C(F)(F)F)C3)ccc2Cl)c1F (stereo not shown) [I-4, N-(3-amino-2,4-difluoro-phenyl)-2-chloro-5-[[5-(3,5-dichlorophenyl)-5-(trifluoromethyl)-4H-isoxazol-3-yl]amino]benzamide]
≥ 75%: mortality at 2500 ppm [1] | mortality at 2500 ppm [2] | mortality at 2500 ppm [3] | mortality at 2500 ppm [4] | mortality at 300 ppm [5] | mortality at 300 ppm [6] | mortality at 300 ppm [7]

O=C(Nc1ccc(F)cc1F)c1cc(NC2=NOC(c3cccc(C(F)(F)F)c3)(C(F)(F)F)C2)ccc1Cl (stereo not shown) [I-38, 2-chloro-N-(2,4-difluorophenyl)-5-[[5-(trifluoromethyl)-5-[3-(trifluoromethyl)phenyl]-4H-isoxazol-3-yl]amino]benzamide]
≥ 75%: mortality at 2500 ppm [8] | mortality at 300 ppm [5] | mortality at 300 ppm [6] | mortality at 300 ppm [7] | mortality at 300 ppm [9]

N#CC1(NC(=O)c2cc(N(CC3CC3)C3=NOC(c4cc(Cl)cc(Cl)c4)(C(F)(F)F)C3)ccc2Cl)CC1 (stereo not shown) [I-60, 2-chloro-N-(1-cyanocyclopropyl)-5-[cyclopropylmethyl-[5-(3,5-dichlorophenyl)-5-(trifluoromethyl)-4H-isoxazol-3-yl]amino]benzamide]
≥ 75%: mortality at 300 ppm [5] | mortality at 300 ppm [6] | mortality at 300 ppm [7] | mortality at 300 ppm [10] | mortality at 300 ppm [9]

O=C(NC1C[S+]([O-])C1)c1cc(NC2=NOC(c3cc(Cl)c(F)c(Cl)c3)(C(F)(F)F)C2)ccc1Cl (stereo not shown) [I-61, 2-chloro-5-[[5-(3,5-dichloro-4-fluoro-phenyl)-5-(trifluoromethyl)-4H-isoxazol-3-yl]amino]-N-(1-oxothietan-3-yl)benzamide]
≥ 75%: mortality at 300 ppm [5] | mortality at 300 ppm [6] | mortality at 300 ppm [11] | mortality at 300 ppm [9]

CCOC(=O)N(C1=NOC(c2cc(Cl)cc(Cl)c2)(C(F)(F)F)C1)c1ccc(Cl)c(C(=O)NC2(C#N)CC2)c1 (stereo not shown) [I-111, ethyl N-[4-chloro-3-[(1-cyanocyclopropyl)carbamoyl]phenyl]-N-[5-(3,5-dichlorophenyl)-5-(trifluoromethyl)-4H-isoxazol-3-yl]carbamate]
≥ 75%: mortality at 300 ppm [5] | mortality at 300 ppm [6] | mortality at 300 ppm [7] | mortality at 300 ppm [11] | mortality at 300 ppm [9] | mortality at 300 ppm [12]

CCN1OC[C@@H](NC(=O)c2cc(N(C)C3=NOC(c4cc(Cl)c(F)c(Cl)c4)(C(F)(F)F)C3)ccc2Cl)C1=O (stereo partly drawn) [I-119, 2-chloro-5-[[5-(3,5-dichloro-4-fluoro-phenyl)-5-(trifluoromethyl)-4H-isoxazol-3-yl]-methyl-amino]-N-[(4R)-2-ethyl-3-oxo-isoxazolidin-4-yl]benzamide]
≥ 75%: mortality at 300 ppm [5] | mortality at 300 ppm [6] | mortality at 300 ppm [7] | mortality at 300 ppm [10]
